# Experimental data: ChEMBL document CHEMBL3885861, “Open TG-GATES”
# Organism: Rattus norvegicus
# Test: Open TG-GATES - Regimen: Single
# Assay type: toxicity, organism-based, Sprague-Dawley
# Set-up: regimen Single, gender Male, age 6 weeks
# Settings: in vivo, po, 0 mg/kg, route gavage, dose level Control; for APTT / Bas / Eos / Fbg / Hb / Ht / Lym / MCH / MCHC / MCV / Mono / Neu / PT / Plat / RBC / Ret / WBC: tissue Blood; for KIDNEY_L / KIDNEY_R / KIDNEY_TOTAL: tissue Kidney; for LIVER: tissue Liver; for A/G / ALP / ALT / AST / BUN / CRE / Ca / Cl / DBIL / GLC / IP / K / LDH / Na / PL / RALB / TBIL / TC / TG / TP / gamma-GTP: tissue Plasma
structure (smiles),measurement,setting,value
Cc1cccc(Nc2ccccc2C(=O)O)c1C [MEFENAMIC ACID],TERMINAL_BW,3 h,216.3 g
same,APTT,3 h,18.2 s
same,Bas,3 h,0%
same,Eos,3 h,1%
same,Fbg,3 h,217.8 mg/dL
same,Hb,3 h,13.2 g/dL
same,Ht,3 h,37.1%
same,Lym,3 h,77.8%
same,MCH,3 h,21.9 pg
same,MCHC,3 h,35.5%
same,MCV,3 h,61.9 fL
same,Mono,3 h,2.4%
same,Neu,3 h,16.4%
same,PT,3 h,12.4 s
same,Plat,3 h,117.6 x10_4/uL
same,RBC,3 h,600.2 x10_4/ul
same,Ret,3 h,7.4%
same,WBC,3 h,74.9 x10_2/uL
same,KIDNEY_L,3 h,1 g
same,KIDNEY_R,3 h,1 g
same,KIDNEY_TOTAL,3 h,1.9 g
same,LIVER,3 h,9.7 g
same,A/G,3 h,1.7
same,ALP,3 h,1061 IU/L
same,ALT,3 h,35 IU/L
same,AST,3 h,67 IU/L
same,BUN,3 h,10.8 mg/dL
same,CRE,3 h,0.4 mg/dL
same,Ca,3 h,10.9 mg/dL
same,Cl,3 h,103 meq/L
same,DBIL,3 h,0.078 mg/dL
same,GLC,3 h,190.4 mg/dL
same,IP,3 h,9 mg/dL
same,K,3 h,4.1 meq/L
same,LDH,3 h,213 IU/L
same,Na,3 h,140.8 meq/L
same,PL,3 h,145.8 mg/dL
same,RALB,3 h,3.5 g/dL
same,TBIL,3 h,0.1 mg/dL
same,TC,3 h,80 mg/dL
same,TG,3 h,49 mg/dL
same,TP,3 h,5.6 g/dL
same,gamma-GTP,3 h,1.2 IU/L
same,TERMINAL_BW,6 h,214.5 g
same,APTT,6 h,18.6 s
same,Bas,6 h,0%
same,Eos,6 h,1%
same,Fbg,6 h,219.4 mg/dL
same,Hb,6 h,13.2 g/dL
same,Ht,6 h,37.2%
same,Lym,6 h,80.6%
same,MCH,6 h,22 pg
same,MCHC,6 h,35.5%
same,MCV,6 h,61.9 fL
same,Mono,6 h,2.4%
same,Neu,6 h,15%
same,PT,6 h,13 s
same,Plat,6 h,107.7 x10_4/uL
same,RBC,6 h,601.8 x10_4/ul
same,Ret,6 h,7.8%
same,WBC,6 h,87.4 x10_2/uL
same,KIDNEY_L,6 h,1 g
same,KIDNEY_R,6 h,1 g
same,KIDNEY_TOTAL,6 h,2 g
same,LIVER,6 h,8.8 g
same,A/G,6 h,1.6
same,ALP,6 h,898.6 IU/L
same,ALT,6 h,36.8 IU/L
same,AST,6 h,65.4 IU/L
same,BUN,6 h,8.6 mg/dL
same,CRE,6 h,0.3 mg/dL
same,Ca,6 h,10.3 mg/dL
same,Cl,6 h,102.8 meq/L
same,DBIL,6 h,0.062 mg/dL
same,GLC,6 h,183.4 mg/dL
same,IP,6 h,8.9 mg/dL
same,K,6 h,4.2 meq/L
same,LDH,6 h,172 IU/L
same,Na,6 h,139.6 meq/L
same,PL,6 h,134.6 mg/dL
same,RALB,6 h,3.3 g/dL
same,TBIL,6 h,0.1 mg/dL
same,TC,6 h,79.4 mg/dL
same,TG,6 h,39.8 mg/dL
same,TP,6 h,5.4 g/dL
same,gamma-GTP,6 h,1 IU/L
same,TERMINAL_BW,9 h,214.7 g
same,APTT,9 h,18.8 s
same,Bas,9 h,0%
same,Eos,9 h,1%
same,Fbg,9 h,228.8 mg/dL
same,Hb,9 h,13.6 g/dL
same,Ht,9 h,38.3%
same,Lym,9 h,78.6%
same,MCH,9 h,22.2 pg
same,MCHC,9 h,35.6%
same,MCV,9 h,62.6 fL
same,Mono,9 h,2.2%
same,Neu,9 h,17.2%
same,PT,9 h,12.8 s
same,Plat,9 h,106.8 x10_4/uL
same,RBC,9 h,613 x10_4/ul
same,Ret,9 h,7.1%
same,WBC,9 h,75.3 x10_2/uL
same,KIDNEY_L,9 h,1 g
same,KIDNEY_R,9 h,1 g
same,KIDNEY_TOTAL,9 h,2 g
same,LIVER,9 h,8.7 g
same,A/G,9 h,1.7
same,ALP,9 h,891.2 IU/L
same,ALT,9 h,32.6 IU/L
same,AST,9 h,64.2 IU/L
same,BUN,9 h,10.6 mg/dL
same,CRE,9 h,0.3 mg/dL
same,Ca,9 h,10.4 mg/dL
same,Cl,9 h,102.8 meq/L
same,DBIL,9 h,0.074 mg/dL
same,GLC,9 h,202.6 mg/dL
same,IP,9 h,8.9 mg/dL
same,K,9 h,3.8 meq/L
same,LDH,9 h,187.4 IU/L
same,Na,9 h,141 meq/L
same,PL,9 h,136.4 mg/dL
same,RALB,9 h,3.5 g/dL
same,TBIL,9 h,0.1 mg/dL
same,TC,9 h,75.2 mg/dL
same,TG,9 h,55.4 mg/dL
same,TP,9 h,5.6 g/dL
same,gamma-GTP,9 h,1 IU/L
same,TERMINAL_BW,24 h,229.4 g
same,APTT,24 h,18 s
same,Bas,24 h,0%
same,Eos,24 h,1%
same,Fbg,24 h,214.8 mg/dL
same,Hb,24 h,13.4 g/dL
same,Ht,24 h,38.5%
same,Lym,24 h,79.2%
same,MCH,24 h,22.4 pg
same,MCHC,24 h,34.8%
same,MCV,24 h,64.2 fL
same,Mono,24 h,2%
same,Neu,24 h,16.4%
same,PT,24 h,12 s
same,Plat,24 h,116.5 x10_4/uL
same,RBC,24 h,599.6 x10_4/ul
same,Ret,24 h,6.7%
same,WBC,24 h,80 x10_2/uL
same,KIDNEY_L,24 h,1 g
same,KIDNEY_R,24 h,1 g
same,KIDNEY_TOTAL,24 h,2.1 g
same,LIVER,24 h,11.1 g
same,A/G,24 h,1.5
same,ALP,24 h,943.6 IU/L
same,ALT,24 h,39 IU/L
same,AST,24 h,66 IU/L
same,BUN,24 h,13.6 mg/dL
same,CRE,24 h,0.4 mg/dL
same,Ca,24 h,10.9 mg/dL
same,Cl,24 h,102.8 meq/L
same,DBIL,24 h,0.1 mg/dL
same,GLC,24 h,193.2 mg/dL
same,IP,24 h,7.9 mg/dL
same,K,24 h,4.1 meq/L
same,LDH,24 h,223.6 IU/L
same,Na,24 h,140.2 meq/L
same,PL,24 h,147.8 mg/dL
same,RALB,24 h,3.4 g/dL
same,TBIL,24 h,0.2 mg/dL
same,TC,24 h,74.6 mg/dL
same,TG,24 h,120.4 mg/dL
same,TP,24 h,5.7 g/dL
same,gamma-GTP,24 h,1.4 IU/L
